Assay results taken from paper PMC9026428, “New Peptide Based Fluconazole Conjugates with Expanded Molecular Targets” (Pharmaceutics, 2022).
Converted amounts (≈) assume the structure as drawn. Like-named read-outs stand apart in the source and are kept apart here. Non-standard residues stand in square brackets, D forms with d. Residues, ends and D or L forms follow the SMILES beside them. *: point of attachment. X1 = O=C(CCCC(=O)*)OC(Cn1cncn1)(Cn1cncn1)c1ccc(F)cc1F; Nle = CCCC[C@H](N)C(=O)O

Tests used:
Candida albicans 138 = assay: microbe, parasite or virus in culture; details: 37 °C; for MIC50 / MIC90: C. albicans 138 (fluconazole-resistant clinical isolate), RPMI 1640/MOPS pH 7.0, 24 h, triplicate; for MIC50: at least 50% growth inhibition vs growth control; for MIC90: lowest concentration with no visible growth
Method in brief: (§1)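 CLSI M27-A3-based microdilution, RPMI/MOPS pH 7.0, 24 h at 37 °C, ~1% DMSO.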

Candida albicans 247 = assay: microbe, parasite or virus in culture; details: 37 °C; for MIC50 / MIC90: C. albicans 247 (fluconazole-resistant clinical isolate), RPMI 1640/MOPS pH 7.0, 24 h, triplicate; for MIC50: at least 50% growth inhibition vs growth control; for MIC90: lowest concentration with no visible growth
Method in brief: (§2)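 Yeasts were exposed to compounds in MOPS-buffered RPMI 1640 (pH 7.0) following a modified CLSI M27-A3 protocol and incubated 24 h at 37 °C. Wells were then subcultured onto drug-free YPD agar for a further 24 h to obtain minimum fungicidal concentrations.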

Candida albicans 48 = assay: microbe, parasite or virus in culture; details: 37 °C; for MIC50 / MIC90: C. albicans 48 (fluconazole-resistant clinical isolate), RPMI 1640/MOPS pH 7.0, 24 h, triplicate; for MIC50: at least 50% growth inhibition vs growth control; for MIC90: lowest concentration with no visible growth
Method in brief: as §2

Candida albicans 574 = assay: microbe, parasite or virus in culture; details: C. albicans 574 (fluconazole-resistant clinical isolate), RPMI 1640/MOPS pH 7.0, 24 h, 37 °C, triplicate; for MIC50: at least 50% growth inhibition vs growth control; for MIC90: lowest concentration with no visible growth
Method in brief: as §2

Candida albicans 604 = assay: microbe, parasite or virus in culture; details: 37 °C; for MIC50 / MIC90: C. albicans 604 (fluconazole-resistant clinical isolate), RPMI 1640/MOPS pH 7.0, 24 h, triplicate; for MIC50: at least 50% growth inhibition vs growth control; for MIC90: lowest concentration with no visible growth
Method in brief: as §2

[1] = test system: Candida albicans ATCC 10231; assay: microbe, parasite or virus in culture; details: C. albicans ATCC 10231, 37 °C; for MIC50 / MIC90: RPMI 1640/MOPS pH 7.0, 24 h, triplicate; for MIC50: at least 50% growth inhibition vs growth control; for MIC90: lowest concentration with no visible growth
Method in brief: as §1

Candida albicans B4 = assay: microbe, parasite or virus in culture; details: 37 °C; for MIC50 / MIC90: C. albicans B4 (fluconazole-resistant, MDR1 overexpression), RPMI 1640/MOPS pH 7.0, 24 h, triplicate; for MIC50: at least 50% growth inhibition vs growth control; for MIC90: lowest concentration with no visible growth
Method in brief: as §1

Candida albicans Gu5 = assay: microbe, parasite or virus in culture; details: C. albicans Gu5 (fluconazole-resistant, CDR1/2 overexpression), RPMI 1640/MOPS pH 7.0, 24 h, 37 °C, triplicate; for MIC50: at least 50% growth inhibition vs growth control; for MIC90: lowest concentration with no visible growth
Method in brief: as §1

[2] = test system: HUVEC cells (human umbilical venous endothelial primary cells); assay: MTT cytotoxicity assay
Experimental: (§3) The assessment of antifungal potential of synthesized agents was carried out using four reference strains (C. albicans ATCC 10231, C. albicans SC5314, C. glabrata DSM […] and C. krusei DSM […]) and six clinical isolates of fluconazole-resistant C. albicans that were provided by the Hospital of Medical University of Gdansk, Poland. Moreover, four C. albicans isolates, assigned as B3, B4, Gu4 and Gu5, were used for investigation whether the synthesized fluconazole derivatives were effectively removed from the yeast cells by the drug efflux transporters, as in the case of fluconazole. These strains were kindly provided by Prof. Joachim Morschhäuser from University of Würzburg (Würzburg, Germany). Strains Gu4 and B3 were fluconazole-sensitive isolates obtained from early infection episodes, while Gu5 and B4 were the corresponding fluconazole-resistant isolates obtained from later episodes in the same patients treated with fluconazole. The lack of susceptibility of the Gu5 strain to fluconazole was a consequence of overexpression of CDR1/2 genes encoding ABC transporters, whereas the resistance of B4 strain was caused by overexpression of the MDR1 gene encoding a membrane transport protein of the major facilitator superfamily (MFS). All of these Candida spp. strains were maintained on YPD agar plates (1% (w/v) yeast extract, 2% (w/v) peptone, 2% (w/v) glucose, 2% (w/v) agar) at 30 °C for 16–24 h. For all of the assays aimed at assessing the antifungal potential of the synthesized agents, the yeasts were cultivated at 37 °C in RPMI 1640 medium (with L-glutamine, without sodium bicarbonate, Sigma-Aldrich, Darmstadt, Germany)) buffered to a pH of 7.0 with 0.165 M morpholinepropanesulfonic acid (MOPS) buffer (Sigma-Aldrich). In this study, we used the human foreskin fibroblast cell line Hs27 (ATCC CRL 1634TM) and the human endothelial cell line HUVEC (C2519A), purchased from Lonza Group AG, (Basel, Switzerland). The Hs27 cells were maintained in cell media consisting of Dulbecco’s modified Eagles medium (DMEM), (Corning, Arizona, USA) with 10% fetal bovine serum (FBS), (Corning, Port Elizabeth, South Africa), 1% penicillin/streptomycin (Sigma-Aldrich Inc., Darmstadt, Germany), and 1% L-glutamine (Corning, Arizona, USA). The human endothelial cell line was maintained in cell media consisting of Endothelial Cell Growth Medium-2 Single Quots Kit (Lonza, USA). Both cell lines were cultured in an incubator at 37 °C and 5% CO2.
(§4) Hs27 and HUVEC mammalian cell lines were cultured as mentioned above. Once cell lines were about 80% confluent, cells were counted by a hemacytometer (Hausser Scientific, Horsham, PA, USA) and plated in 96-well microtiter plates at concentrations of 4500 cells per well for Hs27 and 2000 cells per well for HUVEC. Cells were allowed to attach overnight. […] The final concentration of DMSO was ensured to be around 1% in all experiments. Cells were incubated with studied compounds for 72 h at 37 °C and 5% CO2. After incubation, 20 µL of MTT solution in PBS (4 mg/mL) was added to all wells and incubated further for 3 h at 37 °C. Formed formazan crystals were dissolved in 150 µL DMSO, and absorbance was measured using an Asys UVM340 multi-well plate reader at λ = 540 nm. Cytotoxicity was determined compared to drug-free control. All experiments were performed in biological triplicates.

MTT cytotoxicity assay = details: human
Experimental: as §3, §4

[3] = HUVEC cells, MTT, 72 h, 37 °C, 100–1.5 μM, biological triplicates

SMILES | MIC50 (Candida albicans 138) | MIC90 (Candida albicans 138) | MIC50 (Candida albicans 247) | MIC90 (Candida albicans 247) | MIC50 (Candida albicans 48) | MIC90 (Candida albicans 48) | MIC50 (Candida albicans 574) | MIC90 (Candida albicans 574) | MIC50 (Candida albicans 604) | MIC90 (Candida albicans 604) | MIC50 [1] | MIC90 [1] | MIC50 (Candida albicans B4) | MIC90 (Candida albicans B4) | MIC50 (Candida albicans Gu5) | MIC90 (Candida albicans Gu5) | In vitro cytotoxicity IC90 ± SEM [2, 3] | IC50 at 72 h (MTT cytotoxicity assay) | other results
O=C(O)CCCC(=O)OC(Cn1cncn1)(Cn1cncn1)c1ccc(F)cc1F [FLCpOH] | >250 µM | >250 µM | >250 µM | >250 µM | >250 µM | >250 µM | >250 µM | >250 µM | >250 µM | >250 µM | >250 µM | >250 µM | >250 µM | >250 µM | >250 µM | >250 µM | – | – | IC50 [2]: > 100 µM; In vitro cytotoxicity IC90 ± SEM [2]: >100 µM
CC[C@H](C)[C@H](NC(=O)[C@H](CCCCN)NC(=O)[C@H](CCCCN)NC(=O)[C@H](C)NC(=O)[C@H](CC(C)C)NC(=O)[C@H](C)NC(=O)[C@H](C)NC(=O)[C@H](CC(C)C)NC(=O)[C@H](C)NC(=O)[C@H](CCCCN)NC(=O)[C@H](CC(C)C)NC(=O)[C@H](CC(N)=O)NC(=O)[C@@H](NC(=O)[C@H](CCCCN)NC(=O)CNC(=O)[C@H](CC(C)C)NC(=O)[C@H](CC(C)C)NC(=O)[C@H](Cc1ccc(O)cc1)NC(=O)CNC(=O)[C@H](C)NC(=O)CCCC(=O)OC(Cn1cncn1)(Cn1cncn1)c1ccc(F)cc1F)[C@@H](C)CC)C(=O)N[C@@H](CC(C)C)C(N)=O [FLCpOH-TP10-NH2] | 45 µM (≈ 116 µg/mL) | 62 µM (≈ 160 µg/mL) | 45 µM (≈ 116 µg/mL) | 62 µM (≈ 160 µg/mL) | 45 µM (≈ 116 µg/mL) | 62 µM (≈ 160 µg/mL) | 45 µM (≈ 116 µg/mL) | 62 µM (≈ 160 µg/mL) | 45 µM (≈ 116 µg/mL) | 62 µM (≈ 160 µg/mL) | 15 µM (≈ 38.8 µg/mL) | 31 µM (≈ 80.1 µg/mL) | 62 µM (≈ 160 µg/mL) | 125 µM (≈ 323 µg/mL) | 62 µM (≈ 160 µg/mL) | 125 µM (≈ 323 µg/mL) | 34.30 ± 1.00 µM | – | MFC (Candida albicans 138; C. albicans 138, aliquots plated on YPD agar, 24 h, lowest concentration with no colony growth): 250 µM (≈ 646 µg/mL); MFC (Candida albicans 247; C. albicans 247, aliquots plated on YPD agar, 24 h, lowest concentration with no colony growth): 250 µM (≈ 646 µg/mL); MFC (Candida albicans 48; C. albicans 48, aliquots plated on YPD agar, 24 h, lowest concentration with no colony growth): 250 µM (≈ 646 µg/mL); MFC (Candida albicans 604; C. albicans 604, aliquots plated on YPD agar, 24 h, lowest concentration with no colony growth): 250 µM (≈ 646 µg/mL); MFC ([1]; aliquots plated on YPD agar, 24 h, lowest concentration with no colony growth): 62 µM (≈ 160 µg/mL); MFC (Candida albicans B4; C. albicans B4, aliquots plated on YPD agar, 24 h, lowest concentration with no colony growth): 125 µM (≈ 323 µg/mL)
CSCC[C@H](NC(=O)[C@H](CCCNC(=N)N)NC(=O)[C@H](Cc1c[nH]c2ccccc12)NC(=O)[C@H](CCC(N)=O)NC(=O)[C@H](Cc1c[nH]c2ccccc12)NC(=O)[C@H](CCCNC(=N)N)NC(=O)[C@H](CCCNC(=N)N)NC(=O)[C@H](CS)NC(=O)[C@H](CCCCN)NC(=O)[C@H](Cc1ccccc1)NC(=O)CCCC(=O)OC(Cn1cncn1)(Cn1cncn1)c1ccc(F)cc1F)C(N)=O [FLCpOH-LFacinB(2-11)-NH2] (X1-FKCRRWQWRM-NH2) | 190 µM (≈ 361 µg/mL) | 250 µM (≈ 475 µg/mL) | 190 µM (≈ 361 µg/mL) | 250 µM (≈ 475 µg/mL) | 250 µM (≈ 475 µg/mL) | >250 µM | 190 µM (≈ 361 µg/mL) | 250 µM (≈ 475 µg/mL) | 190 µM (≈ 361 µg/mL) | 250 µM (≈ 475 µg/mL) | 125 µM (≈ 237 µg/mL) | 250 µM (≈ 475 µg/mL) | 190 µM (≈ 361 µg/mL) | 250 µM (≈ 475 µg/mL) | >250 µM | >250 µM | >100 µM | > 100 µM | –
CCCC[C@H](NC(=O)CCCC(=O)OC(Cn1cncn1)(Cn1cncn1)c1ccc(F)cc1F)C(=O)N[C@@H](Cc1ccccc1)C(=O)N[C@@H](CCCCN)C(=O)N[C@@H](CS)C(=O)N[C@@H](CCCNC(=N)N)C(=O)N[C@@H](CCCNC(=N)N)C(=O)N[C@@H](Cc1c[nH]c2ccccc12)C(=O)N[C@@H](CCC(N)=O)C(=O)N[C@@H](Cc1c[nH]c2ccccc12)C(=O)N[C@@H](CCCNC(=N)N)C(=O)N[C@@H](CCCC)C(=O)N[C@@H](CCCCN)C(=O)N[C@@H](CCCCN)C(=O)N[C@@H](CC(C)C)C(=O)NCC(N)=O [FLCpOH-LFacinB[Nle^1,11]-NH2] (X1-[Nle]FKCRRWQWR[Nle]KKLG-NH2) | 23 µM (≈ 55.7 µg/mL) | 31 µM (≈ 75 µg/mL) | 45 µM (≈ 109 µg/mL) | 62 µM (≈ 150 µg/mL) | 250 µM (≈ 605 µg/mL) | >250 µM | 45 µM (≈ 109 µg/mL) | 62 µM (≈ 150 µg/mL) | 45 µM (≈ 109 µg/mL) | 90 µM (≈ 218 µg/mL) | 45 µM (≈ 109 µg/mL) | 62 µM (≈ 150 µg/mL) | 250 µM (≈ 605 µg/mL) | >250 µM | >250 µM | >250 µM | >100 µM | 75.6 ± 1.73 µM | –
